The supplement of paper PMC11061612

Key:
Assay in all cases: combination Emax (second highest fraction inhibited in the dose matrix, 72 h); higher = more inhibition; extreme values may be limits of the assay
[1] = tested on: COR-L95 (Small Cell Lung Carcinoma)
In short: (§1)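 Bliss excess equals the observed combination effect minus the expected value EA + EB − EA·EB, where EA and EB are the effects of each agent alone. Combination Emax is the second-highest inhibition within the matrix. Inhibition was scaled from CellTiter-Glo 2.0 luminescence, with 0 set by vehicle wells and 1 by blank wells, after 72 hours of two-drug dosing of cells plated in 1536-well plates.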

NCI-H2369 (Mesothelioma) = tested on: NCI-H2369 (Mesothelioma)
In short: as §1

NCI-H2595 (Mesothelioma) = tested on: NCI-H2595 (Mesothelioma)
In short: as §1

[2] = tested on: SNU-C5 (Colorectal Carcinoma)
In short: as §1

[3] = tested on: KATOIII (Gastric Carcinoma)
In short: as §1

[4] = tested on: DB (B-Cell Non-Hodgkin's Lymphoma)
In short: as §1

[5] = tested on: DOV13 (Ovarian Carcinoma)
In short: as §1

[6] = tested on: LS-513 (Colorectal Carcinoma)
In short: as §1

[7] = tested on: MDA-MB-157 (Breast Carcinoma)
In short: as §1

[8] = tested on: SW756 (Cervical Carcinoma)
In short: as §1

[9] = tested on: HPAC (Pancreatic Carcinoma)
In short: as §1

IGR-1 (Melanoma) = tested on: IGR-1 (Melanoma)
In short: as §1

[10] = tested on: CTV-1 (T-Lymphoblastic Leukemia)
In short: as §1

CAL-78 (Chondrosarcoma) = tested on: CAL-78 (Chondrosarcoma)
In short: as §1

[11] = tested on: NCI-H1793 (Lung Adenocarcinoma)
In short: as §1

[12] = tested on: G-292-Clone-A141B1 (Osteosarcoma)
In short: as §1

[13] = tested on: HT-29 (Colorectal Carcinoma)
In short: as §1

[14] = tested on: SW780 (Bladder Carcinoma)
In short: as §1

[15] = tested on: KM-H2 (Hodgkin's Lymphoma)
In short: as §1

[16] = tested on: SW1783 (Low Grade Glioma)
In short: as §1

Row | combination Emax [15] | Structure (SMILES) | combination Emax [1] | combination Emax (NCI-H2369 (Mesothelioma)) | combination Emax (NCI-H2595 (Mesothelioma)) | combination Emax [2] | combination Emax [3] | combination Emax [4] | combination Emax [5] | combination Emax [6] | combination Emax [7] | combination Emax [8] | combination Emax [9] | combination Emax (IGR-1 (Melanoma)) | combination Emax [10] | combination Emax (CAL-78 (Chondrosarcoma)) | combination Emax [11] | combination Emax [12] | combination Emax [13] | combination Emax [14] | combination Emax [16]
1 | 0.222 | NC1(C(=O)N[C@@H](CCO)c2ccc(Cl)cc2)CCN(c2ncnc3[nH]ccc23)CC1 [Capivasertib] + CC(C)n1c(=O)n(C)c2cnc3cc(F)c(-c4ccc(OCCCN5CCCCC5)nc4)cc3c21 [AZD1390] (first compound max 10 µM, 7x7, partner max 0.3 µM) | 0.164 | 0.222 | 0.279 | 0.416 | 0.345 | 0.386 | 0.462 | 0.471 | 0.25 | 0.31 | 0.252 | 0.334 | 0.547 | 0.414 | 0.265 | 0.219 | 0.345 | 0.176 | 0.454
2 | 0.196 | CN(CCO)CC[C@H](CSc1ccccc1)Nc1ccc(S(=O)(=O)NC(=O)c2ccc(N3CCC([C@@H](O)c4ccccc4-c4ccc(Cl)cc4)CC3)cc2)cc1S(=O)(=O)C(F)(F)F [AZD4320] + CCN(CCO)CCCOc1ccc2c(Nc3cc(CC(=O)Nc4cccc(F)c4)[nH]n3)ncnc2c1 [AZD2811] (first compound max 1 µM, 7x7, partner max 1 µM) | 1 | 0.378 | 0.125 | 0.196 | 0.0347 | 0.891 | 0.908 | 0.414 | 0.257 | 0.157 | 0.844 | 0.926 | 0.27 | 0.703 | 0.283 | 0.578 | 0.232 | 0.803 | 0.412
3 | 0.201 | Cc1c2c(nn1C)CSCc1cc(n(C)n1)CSc1cc(c3ccccc3c1)OCCCc1c(C(=O)O)n(C)c3c-2c(Cl)ccc13 [AZD5991] + CN(C)CCCOc1ccc(-c2ccc3ncc4c(c3c2)n(C2CCOCC2)c(=O)n4C)cn1 [AZD0156] (first compound max 1 µM, 7x7, partner max 1 µM) | 0.378 | 0.208 | 0.328 | 0.196 | 0.182 | 0.974 | 0.324 | 0.275 | 0.69 | 0.203 | 0.586 | 0.327 | 0.301 | 0.786 | 0.302 | 0.332 | 0.254 | 0.206 | 0.218

Continued, compound first:

Row | Structure (SMILES) | combination Emax [15] | combination Emax [1] | combination Emax (NCI-H2369 (Mesothelioma)) | combination Emax (NCI-H2595 (Mesothelioma)) | combination Emax [2] | combination Emax [3] | combination Emax [4] | combination Emax [5] | combination Emax [6] | combination Emax [7] | combination Emax [8] | combination Emax [9] | combination Emax (IGR-1 (Melanoma)) | combination Emax [10] | combination Emax (CAL-78 (Chondrosarcoma)) | combination Emax [11] | combination Emax [12] | combination Emax [13] | combination Emax [14] | combination Emax [16]
4 | COc1cccc(OCCCN)c1-c1cc(Nc2cnc(C#N)cn2)n[nH]1 [Prexasertib] + CN(C)CCCOc1ccc(-c2ccc3ncc4c(c3c2)n(C2CCOCC2)c(=O)n4C)cn1 [AZD0156] (first compound max 1 µM, 7x7, partner max 1 µM) | 0.933 | 0.644 | 0.29 | 0.1 | 0.889 | 0.522 | 0.771 | 0.927 | 0.824 | 0.935 | 0.379 | 0.795 | 0.466 | 0.988 | 0.525 | 0.468 | 0.33 | 0.858 | 0.136 | 0.445
5 | CC(=O)c1c(C)c2cnc(Nc3ccc(N4CCNCC4)cn3)nc2n(C2CCCC2)c1=O [Palbociclib] + Cc1c2c(nn1C)CSCc1cc(n(C)n1)CSc1cc(c3ccccc3c1)OCCCc1c(C(=O)O)n(C)c3c-2c(Cl)ccc13 [AZD5991] (first compound max 10 µM, 7x7, partner max 1 µM) | 0.567 | 0.196 | 0.199 | 0.225 | 0.35 | 0.406 | 1 | 0.752 | 0.658 | 0.669 | 0.29 | 0.329 | 0.818 | 0.843 | 0.693 | 0.212 | 0.161 | 0.449 | 0.223 | 0.159
6 | COc1cccc(OCCCN)c1-c1cc(Nc2cnc(C#N)cn2)n[nH]1 [Prexasertib] + C[C@@H]1COCCN1C2=NC(=NC(=C2)C3(CC3)[S@](=N)(=O)C)C4=C5C=CNC5=NC=C4 [AZD6738] (first compound max 1 µM, 7x7, partner max 10 µM) | 0.92 | 0.675 | 0.192 | 0.141 | 0.894 | 0.586 | 0.748 | 0.945 | 0.8 | 0.949 | 0.426 | 0.769 | 0.566 | 0.948 | 0.604 | 0.423 | 0.325 | 0.857 | 0.201 | 0.496
7 | C[C@@H](c1ccc2nccn2c1)n1nnc2ncc(-c3cnn(C)c3)nc21 [Savolitinib] + Cc1c2c(nn1C)CSCc1cc(n(C)n1)CSc1cc(c3ccccc3c1)OCCCc1c(C(=O)O)n(C)c3c-2c(Cl)ccc13 [AZD5991] (first compound max 1 µM, 7x7, partner max 1 µM) | 0.11 | 0.163 | 0.116 | 0.302 | 0.177 | 0.211 | 0.986 | 0.153 | 0.155 | 0.639 | 0.128 | 0.168 | 0.223 | 0.113 | 0.697 | 0.173 | 0.138 | 0.142 | 0.164 | 0.22
